Data on one compound can be found in patent US11957696B2 (Propella Therapeutics, Inc., priority 2021, dated 2024).

One test has as its target T1, CYP17A1 (Macaca fascicularis, UniProt Q2XVA1).
T1 construct: endogenous in cells; host or cells: live male cynomolgus monkeys (in vivo; steroidogenic tissues)
T1 sequence (Q2XVA1 1-508): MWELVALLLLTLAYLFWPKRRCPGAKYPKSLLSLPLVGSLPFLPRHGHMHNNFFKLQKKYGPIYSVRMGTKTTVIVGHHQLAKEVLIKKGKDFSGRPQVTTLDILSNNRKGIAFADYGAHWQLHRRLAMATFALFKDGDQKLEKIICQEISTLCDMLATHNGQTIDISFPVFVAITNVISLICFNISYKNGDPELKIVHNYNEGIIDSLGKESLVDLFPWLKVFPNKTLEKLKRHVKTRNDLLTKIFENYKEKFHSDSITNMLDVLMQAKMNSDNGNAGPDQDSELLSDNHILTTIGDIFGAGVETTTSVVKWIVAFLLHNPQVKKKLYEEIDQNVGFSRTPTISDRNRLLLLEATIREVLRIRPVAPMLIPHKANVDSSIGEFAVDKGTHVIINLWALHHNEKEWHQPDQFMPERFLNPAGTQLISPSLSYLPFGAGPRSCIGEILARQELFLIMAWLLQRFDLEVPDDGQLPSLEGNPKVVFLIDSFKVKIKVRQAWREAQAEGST
Nature of the test: PD (progesterone, cortisol, dihydrotestosterone, testosterone levels) in chemically castrated monkeys. Type of test: in vivo, cynomolgus monkeys. From the text: The effects of administering dexamethasone and methylprednisolone acetate according to the schedule of this Example were also shown in FIGS. 5A, 5B, 5C, and 5D.

Another test concerns ACTH. Nature of the test: ACTH analysis (plasma) in 13-week study. Type of test: in vivo, cynomolgus monkeys. The method, then:
Sample Collection for ACTH Analysis (Plasma): Blood samples (approximately 2.5 mL) were collected from all animals via the femoral vein for determination of the plasma concentrations of ACTH. The animals were fasted prior to blood collection except one deviation.

Each structure is given as a SMILES string. Where only a bound is given, the exact number is not on record here.

Regarding `CCCCCCCCCC(=O)O[C@H]1CC[C@@]2(C)C(=CC[C@@H]3[C@@H]2CC[C@]2(C)C(c4cccnc4)=CC[C@@H]32)C1` [Abiraterone Decanoate, abiraterone decanoate], the “PD effects relative to abiraterone plasma concentration” value at CYP17A1 (10 mg/kg dosing group) is “prolonged PD effects were observed even after abiraterone plasma concentration dropped below 1 ng/mL”. In addition, the “progesterone, cortisol, dihydrotestosterone and testosterone levels” value on CYP17A1 (single dose IM, all three doses) was “sustained increase of progesterone level and reduction of cortisol, dihydrotestosterone, and testosterone level”. Also, the “duration of CYP17A1 inhibition” value at CYP17A1 (single dose IM, all three doses (10, 30, 100 mg/kg)) is recorded as ≥ 70 days. Further, the “ACTH fold change of treated group mean relative to pretreatment (Day −1) mean” value in the test on ACTH (20 mg/kg/dose, Day 8) is reported as 1.72×; in the test on ACTH (20 mg/kg/dose, Day 15), 2.63×; in the test on ACTH (20 mg/kg/dose, Day 78), 2.30×*; with ACTH (20 mg/kg/dose, Day 85) it was 1.89×*; in the test with ACTH (60 mg/kg/dose, Day 8), 2.55×*; with ACTH (60 mg/kg/dose, Day 15) it was 2.35×*. Besides, the “ACTH fold change of treated group mean relative to pretreatment (Day −1) mean” value turned out to be 1.33×* in the test on ACTH (60 mg/kg/dose, Day 78); 1.36×* with ACTH (60 mg/kg/dose, Day 85); 4.90×* in the test on ACTH (200 mg/kg/dose, Day 8); 5.14×* with ACTH (200 mg/kg/dose, Day 15); 4.65×* with ACTH (200 mg/kg/dose, Day 78); 4.66×* with ACTH (200 mg/kg/dose, Day 85). The ACTH concentrations entry in the test with ACTH (males at ≥20 mg/kg/dose) was “increases”.
